Data on 123 compounds can be found in a melting point compilation (Tetko et al.).

On to `CC(C)(CO)N1C(=O)c2ccccc2C1=O`, for which the melting point is 65 to 67 °C.
As to `O=C(O)CCc1ccc(S(=O)(=O)Cl)cc1`, the melting point lay within 157 to 159 °C.
As for `O=C(CCl)Nc1ccc(O)cc1`, the figure is 145 to 147 °C.
Turning to `Cc1nnc(S)n1CC(N)=O`, the melting point lay in the range of 232 to 234 °C.
As for `Sc1nncn1-c1cccc(Cl)c1`, the figure is 187 to 189 °C.
As for `CNC(=O)c1ccc(C#N)cc1`, the figure is 209 to 211 °C.
Then `CCC1SC(N)=NC1=O` (stereo not drawn), with 188 to 190 °C; and `CC(Cl)C(=O)Nc1ccc(S(=O)(=O)N2CCCCC2)cc1` (stereo not drawn), with 130 to 135 °C.
Compound `O=C1c2ccccc2C(=O)N1CC1(CO)CCCC1` displayed a melting point of 83 to 85 °C.
As for `Sc1nnnn1-c1ccc2c(c1)OCO2`, the figure is 157 to 159 °C; as for `Cc1ccc(Cn2ncc3c(C(=O)O)cc(C)nc32)cc1`, 190 to 192 °C; as for `NCc1cccc(NC(=O)Cn2cccn2)c1`, 113 to 115 °C.
As for `CCOc1ccc(-c2cc(C(=O)O)c3c(C)noc3n2)cc1`, the figure is 222 to 224 °C; as for `COc1cc(OC)cc(Oc2ccc(C=O)cc2)c1`, 57 to 59 °C; as for `CN1CC(=O)Nc2cc(Cl)ccc21`, 181 to 183 °C.
As for `NCCc1c[nH]c2cc(Cl)ccc12`, the figure is 104 to 106 °C.
As to `Cc1cc(C=O)c(C)n1-c1cccc(C(F)(F)F)c1`, the melting point fell in the range of 103 to 105 °C.
`Cc1nc(C)c(NC(=O)OC(C)(C)C)s1` had a melting point of 90 to 92 °C.
Then `C1CC2OC1C1CNCC21` (stereo not drawn), with 53 to 55 °C; and `COC(=O)Cc1csc(N)n1`, with 123 to 125 °C.
As for `CC(N)c1ccc(S(C)(=O)=O)c(F)c1` (stereo not drawn), the figure is 60 to 62 °C; as for `O=c1cc(CO)c2ccc(O)cc2o1`, 221 to 223 °C; as for `O=C(O)c1cc(-c2cc(F)ccc2F)no1`, 187 to 189 °C.
Consider `COCCNC(=O)Cc1ccc(N)cc1`, for which the melting point was in the range of 50 to 52 °C.
Then `Nc1cnc2ccccc2n1`, with 138 to 140 °C.
Then `N#Cc1ccc(Cl)cc1NC1CCCC1`, with 74 to 76 °C; and `ClCc1cc(Cl)cc2c1OCC2`, with 46 to 48 °C; and `Nc1ccc(NC(=O)c2ccccc2)nc1`, with 139 to 141 °C.
The compound `O=[N+]([O-])c1ccc(Br)c(S(=O)(=O)Cl)c1` yielded a melting point of 86 to 88 °C.
Then `NCCNS(=O)(=O)Cc1ccon1`, with 89 to 91 °C; and `BrCC1CSc2nnc(-c3ccccc3)n21` (stereo not drawn), with 157 to 159 °C; and `COC(=O)c1cn(CCCC#N)nn1`, with 75 to 77 °C.
Then `O=C(O)c1c[nH]cc1-c1ccccc1`, with 212 to 214 °C; and `CCOC(=O)C(=O)CC(=O)c1cccnc1`, with 66 to 68 °C.
Then `NCCNS(=O)(=O)c1ccccc1`, with 74 to 76 °C.
`COC(=O)c1ccc(S(=O)(=O)Cl)c([N+](=O)[O-])c1` gave a melting point of 100 to 102 °C.
As for `Cc1ccc(C)n1-c1sccc1C(=O)O`, the figure is 168 to 170 °C; as for `CCC1=C(C(=O)O)Cc2ccccc2O1`, 223 to 225 °C.
Then `Cc1nn(-c2ccccc2)c(C)c1CC(=O)O`, with 110 to 112 °C; and `CC(C)(C)c1ncc(N)cn1`, with 119 to 121 °C; and `CON(C)S(=O)(=O)c1ccc(Br)cc1`, with 81 to 83 °C.
Then `CN(C)c1ccc(C#N)cc1F`, with 34 to 36 °C; and `CCOC(=O)c1nc2c(s1)NCCCC2`, with 144 to 146 °C.
`O=Cc1cc(-c2cccs2)cs1`: the melting point was in the range of 107 to 109 °C.
Then `Nc1nc(Cc2ccc(Cl)cc2Cl)cs1`, with 96 to 98 °C; and `CCOC(=O)c1cccnc1SCC(=O)O`, with 109 to 111 °C; and `O=C(O)CCCNS(=O)(=O)c1ccc(Cl)c(Cl)c1`, with 123 to 125 °C.
Then `CCCN(CC)C(=O)c1ccc(C(=O)O)cc1`, with 121 to 123 °C; and `O=C(CCl)Nc1cccc(S(=O)(=O)N=C2CCCCCN2)c1`, with 133 to 135 °C; and `O=S(=O)(c1cccs1)N1CCNCC1`, with 98 to 100 °C.
As for `O=C1CC2(CCSC2)C(=O)O1` (stereo not drawn), the figure is 83 to 85 °C; as for `Cn1ccc(C(=O)N2CCCCC2CC(=O)O)cc1=O` (stereo not drawn), 194 to 196 °C.
With `O=C(O)CCCc1csc2ccccc12`, the melting point was 109 to 111 °C.
`CCCCc1nnc(N)o1` returned a melting point of 139 to 141 °C.
As for `O=C(O)c1cccn2ccnc12`, the figure is 266 to 268 °C; as for `CCOC(=O)/C(C#N)=C\Nc1cc(Cl)ccc1F`, 147 to 149 °C; as for `CC(C)(C)OC(=O)N1CCc2[nH]c(=O)c(S(C)(=O)=O)cc2C1`, 229 to 231 °C.
As for `O=C1CCN(S(=O)(=O)c2cccs2)CC1`, the melting point was in the range of 127 to 129 °C.
As for `CC1(C)CNCCS1(=O)=O`, the figure is 46 to 48 °C; as for `COCCOc1ccc(C(=O)O)cc1`, 151 to 153 °C; as for `O=C(O)CCC(NC(=O)Cc1ccc2ccccc2c1)C(=O)O` (stereo not drawn), 173 to 175 °C.
Then `NCc1nnc(-c2cccc(Br)c2)o1`, with 98 to 100 °C; and `O=C1CC(c2ccccc2)N1` (stereo not drawn), with 107 to 109 °C.
Compound `CC(C)S(=O)(=O)Cc1ccc(N)cc1` had a melting point of 134 to 136 °C.
Then `CC1(C)C(=O)Nc2ccc(C(=O)CCl)cc21`, with 233 to 235 °C; and `CC(C)Cc1cc(C(=O)O)cc(O)n1`, with 235 to 237 °C; and `Cc1cc(CO)ncn1`, with 74 to 76 °C.
As for `N#Cc1c(OCCCO)n[nH]c1N`, the figure is 155 to 157 °C; as for `CC(=O)N1CCCc2cc(C(=O)O)ccc21`, 184 to 186 °C; as for `NC(=O)Nc1ccc2c(c1)OCO2`, 178 to 182 °C.
For the compound `O=S(=O)(Cc1ccccc1)N1CCNCC1`, the melting point was 129 to 131 °C.
The compound `Cc1ccc(C=CCC(=O)O)cc1` showed a melting point of 105 to 107 °C.
`Cc1sc2nc(S)n(C)c(=O)c2c1C` displayed a melting point of 288 to 290 °C.
Then `CCCn1c(N)cc(=O)n(C)c1=O`, with 166 to 168 °C.
For the compound `COc1ccc2c(c1)CCCC(=O)N2`, the melting point was 142 to 144 °C.
Then `Cc1ccc(-c2cnnc(N)n2)s1`, with 300 to 302 °C.
The compound `CC(CC(=O)O)C(=O)c1ccc(Cl)cc1` (stereo not drawn) returned a melting point of 73 to 75 °C.
As for `O=S1(=O)CCC2(CC1)CO2`, the figure is 168 to 170 °C; as for `Cc1ccc(Oc2ccc(N)cc2)nn1`, 114 to 116 °C.
Then `NC(=O)Cc1csc(-c2ccco2)n1`, with 125 to 127 °C.
As for `O=C(CCl)N1CC=C(c2c[nH]c3ccccc23)CC1`, the figure is 172 to 174 °C; as for `O=S(=O)(CCCl)c1ccc(Br)cc1`, 110 to 112 °C; as for `COc1ccc(-c2[nH]c3ccccc3c2CCC(=O)O)cc1`, 134 to 136 °C.
Take `COc1cc(Br)ccc1C(N)=O`: the melting point lay in the range of 134 to 136 °C.
For `O=S(=O)(c1ccccc1O)C(F)(F)F`, the melting point lay in the range of 47 to 49 °C.
As for `CS(=O)(=O)NCc1ccccn1`, the figure is 88 to 90 °C.
With `O=C(CCl)n1nc2ccccn2c1=O`, the melting point lay within 164 to 166 °C.
As for `Cn1ccc(NC(=O)CC#N)n1`, the melting point was in the range of 159 to 161 °C.
As for `NC1CCN(c2ncccn2)CC1`, the figure is 82 to 84 °C.
`Nc1cc(=O)[nH][nH]1` yielded a melting point of 204 to 206 °C.
As for `Nc1nc2ccccc2nc1Cl`, the figure is 141 to 143 °C; as for `Cc1nc2ccnn2c(C)c1CCC(=O)O`, 223 to 225 °C; as for `CC(C)(C)OC(=O)N1CCN(C(N)=O)C(C(=O)O)C1` (stereo not drawn), 158 to 160 °C.
Take `O=C(O)c1cc2cc(Cl)cc(Br)c2o1`: the melting point fell in the range of 265 to 267 °C.
As for `C=CCn1cnc(-c2ccccc2)c1N`, the figure is 72 to 74 °C; as for `CCn1nnc2cc(C(=O)O)ccc21`, 228 to 230 °C.
Then `COC(=O)c1cnn2ccccc12`, with 79 to 81 °C; and `Oc1ccccc1-n1ccnc1`, with 218 to 220 °C; and `O=C(CCl)NCc1cccc(C(=O)NC2CC2)c1`, with 137 to 139 °C.
As for `O=C(O)C=Cc1ccc(S(=O)(=O)N2CCc3ccccc32)cc1`, the melting point was 199 to 201 °C.
Then `NC(=O)c1cccc(CS)n1`, with 61 to 63 °C.
Then `Clc1cc(C2CC2)nc2ncnn12`, with 99 to 101 °C; and `CC(=O)N1CCCC(C(=O)O)C1` (stereo not drawn), with 129 to 131 °C; and `N#CCNC(=O)CN1CCC(=O)CC1`, with 124 to 126 °C.
For the compound `O=C(O)c1cccnc1Oc1ccc(Br)cc1`, the melting point lay in the range of 177 to 179 °C.
As for `OCc1ccc(O)c(F)c1`, the figure is 81 to 83 °C.
Then `O=C(O)CNC(=O)c1ccc(C(=O)NCC(=O)O)cc1`, with 261 to 263 °C; and `O=C(O)c1c2c(nc3ccccc13)C(=Cc1cccc([N+](=O)[O-])c1)CCC2`, with 299 to 301 °C; and `NC(=S)c1cccc(S(N)(=O)=O)c1`, with 152 to 154 °C.
Then `O=C(O)CCc1cc2ccccc2[nH]c1=O`, with 227 to 229 °C; and `COCCOc1ccc(C(=O)O)cc1[N+](=O)[O-]`, with 134 to 136 °C; and `O=C(O)c1cnn(-c2ccccn2)c1`, with 186 to 188 °C.
On to `CCN1C(=O)C(=O)c2cc(C)ccc21`, for which the melting point lay in the range of 104 to 106 °C.
Then `CN(C(=O)CC#N)C1CCCCC1`, with 88 to 90 °C.
As for `COc1ccnc(N2CCNCC2)c1`, the figure is 36 to 38 °C.
Then `O=C(O)Cc1cc(Cl)ccc1Br`, with 101 to 103 °C.
Compound `COC(=O)c1c[nH]c(=O)c(N)c1` returned a melting point of 209 to 211 °C.
`Cc1cc(C(=O)O)nc(-c2ccc(Cl)cc2)n1` gave a melting point of 163 to 165 °C.
Regarding `O=C(NC1CCC(O)CC1)C(F)(F)F` (stereo not drawn), the melting point lay within 186 to 188 °C.
As for `O=C(O)c1nnn(-c2ccccc2)c1C(F)(F)F`, the figure is 132 to 134 °C; as for `CC1CCCN1C(=O)c1ccc(C#N)cc1` (stereo not drawn), 87 to 89 °C.
Then `Nc1ccc(C=CC(=O)O)cn1`, with 189 to 191 °C.
Turning to `O=C(O)c1cccc(CN2CCCC2)c1`, the melting point lay within 196 to 198 °C.

For orientation: melting point means the temperature of the solid-liquid transition.
